# Like-named read-outs stand apart in the source and are kept apart here.
# Columns and labels:
# [1] = system: NCIH460, HCT116, MDAMB-231/U 251; experiment: Anti-cancer screen, mean GI50 over the cell lines; format: cell-based; conditions: in µM
# Experimental: (§1) Experimental drugs are screened for anti-cancer activity in three cell lines for their GI50, TGI and LC50 values (using five concentrations for each compound). The cell lines are maintained in DMEM containing 10% fetal bovine serum. 96 well micro titer plates are inoculated with cells in 100 µL for 24 hours at 37° C., 5% CO2, 95% air and 100% relative humidity. 5000 HCT 116 cells/well, 5000 NCIH 460 cells/well and 5000 U251 cells/well are plated. A separate plate with these cell lines is also inoculated to determine cell viability before the addition of the compounds (T0).
# (§2) Following 24-hour incubation, experimental drugs are added to the 96 well plates. Each plate contains one of the above cell lines and the following in triplicate: five different concentrations (0.01, 0.1, 1, 10 and 100 µM) of four different compounds, appropriate dilutions of a cytotoxic standard and control (untreated) wells. Compounds are dissolved in DMSO to make 20 mM stock solutions on the day of drug addition and frozen at −20° C. Serial dilutions of these 20 mM stock solutions are made in complete growth medium such that 100 µL of these drug solutions in medium, of final concentrations equaling 0.01, 0.1, 1, 10 and 100 µM can be added to the cells in triplicate. Standard drugs whose anti-cancer activity has been well documented and which are regularly used are doxorubicin and SAHA.
# (§3) For T0 measurement, 24 hours after seeding the cells, 10 µL of 3-(4,5-Dimethyl-2-thiazolyl)-2,5-diphenyl-2H-tetrazolium (MTT) solution per well is added and incubation carried out for 3 hours at 37° C., 5% CO2, 95% air and 100% relative humidity, protected from light. Cells incubated with compounds for 48 hours are treated similarly except with the addition of 20 µl MTT solution per well and a subsequent incubation under the same conditions. After 3 hours of MTT incubation, well contents are aspirated carefully followed by addition of 150 µL DMSO per well. Plates are agitated to ensure solution of the formazan crystals in DMSO and absorbance read at 570 nm.
# (§4) Percent growth is calculated for each compound's concentration relative to the control and zero measurement wells (T0; viability right before compound addition). If a test well's O.D. value is greater than the T0 measurement for that cell line
# NCIH460 = experiment: Anti-cancer screen (MTT), NCIH460; format: cell-based; conditions: Homo sapiens, NCI-H460, 48 hours with compound, tested at 0.01-100 µM
# Experimental: as §1, §2, §3, §4
# (§5) %Growth=(test−zero)/(control−zero)×100
# (§6) If a test well's O.D. value is lower than the T0 measurement for that cell line, then,
# (§7) %Growth=(test−zero)/zero×100
# HCT116 = experiment: Anti-cancer screen (MTT), HCT116; format: cell-based; conditions: Homo sapiens, HCT-116, 48 hours with compound, tested at 0.01-100 µM
# Experimental: as §1, §2, §3, §4, §5, §6, §7
# MDAMB-231/U 251 = experiment: Anti-cancer screen (MTT), MDAMB-231/U 251; format: cell-based; conditions: for CC50: read-out: MDAMB-231/U 251 LC50
# Experimental: as §1, §2, §3, §4, §5, §6, §7
# HDAC = HDAC inhibition; format: biochemical; conditions: for HDAC Inhibition 1 μM: compound at 1 μM; for HDAC Inhibition 10 μM: compound at 10 μM
# [2] = 48 hours with compound, MTT, tested at 0.01-100 µM
SMILES,Mean GI50 [1],GI50 (NCIH460),IC (TGI) (NCIH460),LC50 (NCIH460),GI50 (HCT116),IC (TGI) (HCT116),LC50 (concentration giving 50% net cell kill relative to T0) (HCT116),CC50 (MDAMB-231/U 251; 48 h),GI50 (MDAMB-231/U 251; [2]),IC (TGI) (MDAMB-231/U 251; [2]),CC50 (HCT116; read-out: HCT116 LC50),CC50 (MDAMB-231/U 251; [2]),HDAC Inhibition 1 μM (HDAC),HDAC Inhibition 10 μM (HDAC)
"O=C(Nc1nc(CC(=O)N2CCC(N3CCCCC3)CC2)cs1)OCc1cccnc1 [Example 13, Pyridin-3-ylmethyl{4-[2-(1,4′-bipiperidin-1′-yl)-2-oxoethyl]-1,3-thiazol-2-yl}carbamate]",>100,2.8 µM,25 µM,> 100 µM,> 100 µM,> 100 µM,> 100 µM,> 100 µM,0.09 µM,> 100 µM,–,–,–,–
"CON(C)C(=O)Cc1csc(NC(=O)OCc2cccnc2)n1 [Example 14, Pyridin-3-ylmethyl(4-{2-[methoxy(methyl)amino]-2-oxoethyl}-1,3-thiazol-2-yl)carbamate]",45,10 µM,> 100 µM,> 100 µM,80 µM,> 100 µM,> 100 µM,> 100 µM,> 100 µM,> 100 µM,–,–,–,–
"O=C(CCCNC(=O)Cc1csc(NC(=O)OCc2c(F)c(F)c(F)c(F)c2F)n1)NO [Example 92, Pentafluorobenzyl[4-(2-{[4-(hydroxyamino)-4-oxobutyl]amino}-2-oxoethyl)-1,3-thiazol-2-yl]carbamate]",>100,> 100 µM,> 100 µM,> 100 µM,> 100 µM,> 100 µM,> 100 µM,> 100 µM,30 µM,50 µM,–,–,–,–
"CNC(=O)c1ccc(CNC(=O)OCc2nc3ccccc3[nH]2)cc1 [Example 41, 1H-Benzimidazol-2-ylmethyl{4-[(methylamino)carbonyl]benzyl}carbamate]",24.3,6 µM,> 100 µM,> 100 µM,58 µM,> 100 µM,> 100 µM,> 100 µM,9 µM,> 100 µM,–,–,–,–
"CONC(=O)c1ccc(CNC(=O)OCc2c(F)c(F)c(F)c(F)c2F)cc1 [Example 44, Pentafluorobenzyl(4-{[methoxyamino]carbonyl}benzyl)carbamate]",22.67,42 µM,> 100 µM,> 100 µM,21 µM,> 100 µM,> 100 µM,> 100 µM,5 µM,9 µM,–,–,–,–
"CS(=O)(=O)Oc1ccc(NC(=O)c2ccc(CNC(=O)OCc3cccs3)cc2)cc1 [Example 70, 4-[(4-{[(2-thienylmethyloxycarbonyl)amino]methyl}benzoyl)amino]phenylmethanesulfonate]",19.65,–,–,–,–,–,–,–,–,–,–,–,–,–
"O=C(NCc1ccc(C(=O)NO)cc1)OCc1c(F)cc(F)cc1F [Example 38, 2,4,6-Trifluorobenzyl{4-[(hydroxyamino)carbonyl]benzyl}carbamate]",9.2,22 µM,52 µM,82 µM,5 µM,20 µM,65 µM,68 µM,0.5 µM,8 µM,–,–,–,–
"CC(=O)N(O)C(=O)Cc1csc(NC(=O)OCc2cc(Br)cs2)n1 [Example 79, (4-Bromo-2-thienyl)methyl(4-{2-[acetyl(hydroxy)amino]-2-oxoethyl}-1,3-thiazol-2-yl)carbamate]",20.1,30 µM,74 µM,> 100 µM,30 µM,65 µM,–,–,0.4 µM,52 µM,95 µM,100 µM,–,–
"O=C(NCc1ccc(C(=O)N2CCN(Cc3ccc4c(c3)OCO4)CC2)cc1)OCc1c(F)cc(F)cc1F [Example 62, 2,4,6-Trifluorobenzyl(4-{[4-(1,3-benzodioxol-5-ylmethyl)piperazin-1-yl]carbonyl}benzyl)carbamate]",1.7,0.1 µM,8.5 µM,> 100 µM,3 µM,> 100 µM,> 100 µM,> 100 µM,2 µM,10 µM,–,–,–,–
"O=C(NCc1ccc(C(=O)N2CCOCC2)cc1)OCc1ccsc1 [Example 51, 3-Thienylmethyl[4-(morpholin-4-ylcarbonyl)benzyl]carbamate]",–,94.5 µM,> 100 µM,> 100 µM,> 100 µM,> 100 µM,> 100 µM,> 100 µM,> 100 µM,> 100 µM,–,–,3.20,3.18
"O=C(NCc1ccc(C(=O)NO)cc1)OCc1ccc(C(F)(F)F)cc1 [Example 35, 4-(Trifluoromethyl)benzyl{4-[(hydroxyamino)carbonyl]benzyl}carbamate]",8.4,20 µM,50 µM,80 µM,5 µM,12 µM,60 µM,70 µM,0.05 µM,15 µM,–,–,–,–
"CNC(=O)c1ccc(CNC(=O)OCC2COc3ccccc3O2)cc1 (stereo not shown) [Example 42, 2,3-Dihydro-1,4-benzodioxin-2-ylmethyl{4-[(methylamino)carbonyl]benzyl}carbamate]",>100,> 100 µM,> 100 µM,> 100 µM,> 100 µM,> 100 µM,> 100 µM,> 100 µM,0.7 µM,> 100 µM,–,–,–,–
"CN1CCN(C(=O)c2ccc(CNC(=O)OCc3ccsc3)cc2)CC1 [Example 50, 3-Thienylmethyl{4-[(4-methylpiperazin-1-yl)carbonyl]benzyl}carbamate]",–,64 µM,> 100 µM,> 100 µM,64 µM,> 100 µM,> 100 µM,> 100 µM,65 µM,> 100 µM,–,–,−3.95,1.45
"Nc1ccccc1NC(=O)c1ccc(CNC(=O)OCc2ccsc2)cc1 [Example 49, 3-Thienylmethyl(4-{[(2-aminophenyl)amino]carbonyl}benzyl)carbamate]",–,42 µM,96 µM,> 100 µM,2 µM,59 µM,> 100 µM,82 µM,31 µM,56 µM,–,–,10.15,18.78
"CCOC(=O)CN(OC)C(=O)c1ccc(CNC(=O)OCc2cccs2)cc1 [Example 109, ethyl{methoxy[4-({[(2-thienylmethoxy)carbonyl]amino}-methyl)benzoyl]amino}acetate]",–,–,–,–,–,–,–,–,–,–,–,–,8.84,15.41
